The values that follow come from ChEMBL document CHEMBL1136781, “Comparison of in vitro P-glycoprotein screening assays: recommendations for their use in drug discovery” (J Med Chem, 2003).

Where only a bound is given, the exact number is not on record here.

Data set [1] deals with T1, ATP-dependent translocase ABCB1 (Mus musculus, UniProt P21447). The experiment in a line: Inhibition of P-glycoprotein, mouse L-mdr1a expressed in LLC-PK1 epithelial cells using calcein-AM polarisation assay. The class given is functional, cell-based. The following applies: llc-pk1.
Data set [2] deals with T2, ATP-dependent translocase ABCB1 (Homo sapiens, UniProt P08183). The experiment in a line: TP_TRANSPORTER: inhibition of Rhodamine 123 efflux in Caco-2 cells. Also noted: concentration or dose not given beside the values. The class given is functional, cell-based. On the technique in general: Caco-2 cells form a polarised layer with tight junctions and transporters.
For data set [3], the target named is T2, ATP-dependent translocase ABCB1. Kind of data set: Inhibition of P-glycoprotein using ATPase in MDR1 membranes. The class given is functional, cell membranes.
Data set [4] concerns the target T3, ATP-dependent translocase ABCB1 (Mus musculus, UniProt P06795). Kind of data set: TP_TRANSPORTER: inhibition of Calcein-AM efflux in Mdr1b-expressing LLC-PK1 cells. The following applies: llc-pk1. The class given is functional, cell-based.
Data set [5] concerns the target T2, ATP-dependent translocase ABCB1. Kind of data set: TP_TRANSPORTER: inhibition of Calcein-AM efflux in MDR1-expressing LLC-PK1 cells. The format is functional, cell-based. The following applies: llc-pk1.
Data set [6] shares this target. The experiment in a line: Inhibition of P-gp was determined using rhodamine-assay in human CaCo-2 cells. The class given is functional, cell-based. Also noted: concentration or dose not given beside the values.
Data set [7] concerns the target T3, ATP-dependent translocase ABCB1. The experiment in a line: Inhibition of P-glycoprotein, mouse L-mdr1b expressed in LLC-PK1 epithelial cells using calcein-AM polarisation assay. The following applies: llc-pk1. The class given is functional, cell-based.
In data set [8] the target is T2, ATP-dependent translocase ABCB1. The experiment in a line: Inhibition of P-glycoprotein, human L-MDR1 expressed in LLC-PK1 epithelial cells using calcein-AM polarisation assay. The class given is functional, cell-based. The following applies: llc-pk1.
Data set [9] can be described thus: Partition coefficient (logP). The format is physicochemical. The following applies: octanol/water.
Data set [10] has as its target T1, ATP-dependent translocase ABCB1. The experiment in a line: TP_TRANSPORTER: inhibition of Calcein-AM efflux in Mdr1a-expressing LLC-PK1 cells. The class given is functional, cell-based. The following applies: llc-pk1.
For the next data set, the target named is Cytochrome P450 3A4 (Homo sapiens, UniProt P08684).
Sequence of Cytochrome P450 3A4 (P08684 whole entry): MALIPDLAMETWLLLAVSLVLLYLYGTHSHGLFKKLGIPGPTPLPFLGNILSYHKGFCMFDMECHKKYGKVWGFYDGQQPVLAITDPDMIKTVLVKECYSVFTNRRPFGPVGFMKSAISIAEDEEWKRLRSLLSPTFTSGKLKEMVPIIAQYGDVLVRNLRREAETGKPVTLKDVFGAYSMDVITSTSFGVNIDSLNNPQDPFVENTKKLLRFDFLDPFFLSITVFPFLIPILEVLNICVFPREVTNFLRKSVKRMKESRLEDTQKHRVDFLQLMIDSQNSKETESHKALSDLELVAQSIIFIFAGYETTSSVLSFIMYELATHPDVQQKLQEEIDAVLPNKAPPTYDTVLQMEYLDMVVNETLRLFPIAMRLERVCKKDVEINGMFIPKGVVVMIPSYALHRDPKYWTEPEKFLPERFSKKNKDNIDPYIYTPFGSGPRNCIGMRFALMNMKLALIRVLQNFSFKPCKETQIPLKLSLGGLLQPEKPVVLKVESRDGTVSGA

T2 sequence (P08183 whole entry): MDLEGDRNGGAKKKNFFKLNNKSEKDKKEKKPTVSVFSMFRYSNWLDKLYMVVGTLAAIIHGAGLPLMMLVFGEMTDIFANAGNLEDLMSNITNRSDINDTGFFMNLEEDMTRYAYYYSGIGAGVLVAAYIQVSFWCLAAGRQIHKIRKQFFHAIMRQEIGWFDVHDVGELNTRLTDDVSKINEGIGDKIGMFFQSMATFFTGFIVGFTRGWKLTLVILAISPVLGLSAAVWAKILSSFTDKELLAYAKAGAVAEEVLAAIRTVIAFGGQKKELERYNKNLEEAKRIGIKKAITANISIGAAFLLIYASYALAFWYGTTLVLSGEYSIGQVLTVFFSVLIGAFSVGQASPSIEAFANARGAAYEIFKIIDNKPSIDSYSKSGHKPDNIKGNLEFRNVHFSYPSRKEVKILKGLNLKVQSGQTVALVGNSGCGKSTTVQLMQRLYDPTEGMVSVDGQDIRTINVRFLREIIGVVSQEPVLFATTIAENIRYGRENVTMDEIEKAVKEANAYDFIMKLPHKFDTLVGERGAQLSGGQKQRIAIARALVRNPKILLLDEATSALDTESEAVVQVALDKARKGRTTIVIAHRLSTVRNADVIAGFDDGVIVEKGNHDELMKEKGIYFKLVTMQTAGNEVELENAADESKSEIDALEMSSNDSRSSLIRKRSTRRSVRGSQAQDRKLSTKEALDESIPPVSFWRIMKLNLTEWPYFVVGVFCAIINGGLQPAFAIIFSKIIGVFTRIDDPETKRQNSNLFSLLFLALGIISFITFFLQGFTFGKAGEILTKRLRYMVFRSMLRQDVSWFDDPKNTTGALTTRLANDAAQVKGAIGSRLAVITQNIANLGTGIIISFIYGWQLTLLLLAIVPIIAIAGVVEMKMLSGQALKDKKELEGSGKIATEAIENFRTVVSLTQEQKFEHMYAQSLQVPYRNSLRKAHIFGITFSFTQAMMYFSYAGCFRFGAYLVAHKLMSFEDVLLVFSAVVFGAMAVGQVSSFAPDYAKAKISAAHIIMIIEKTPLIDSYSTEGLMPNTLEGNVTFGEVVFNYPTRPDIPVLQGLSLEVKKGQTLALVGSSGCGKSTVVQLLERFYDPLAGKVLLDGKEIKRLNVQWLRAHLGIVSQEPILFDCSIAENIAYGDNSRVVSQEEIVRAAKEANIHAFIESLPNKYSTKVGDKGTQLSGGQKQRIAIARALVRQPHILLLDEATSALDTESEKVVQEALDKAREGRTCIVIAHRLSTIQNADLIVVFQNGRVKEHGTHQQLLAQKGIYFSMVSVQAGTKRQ
T1 sequence (P21447 whole entry): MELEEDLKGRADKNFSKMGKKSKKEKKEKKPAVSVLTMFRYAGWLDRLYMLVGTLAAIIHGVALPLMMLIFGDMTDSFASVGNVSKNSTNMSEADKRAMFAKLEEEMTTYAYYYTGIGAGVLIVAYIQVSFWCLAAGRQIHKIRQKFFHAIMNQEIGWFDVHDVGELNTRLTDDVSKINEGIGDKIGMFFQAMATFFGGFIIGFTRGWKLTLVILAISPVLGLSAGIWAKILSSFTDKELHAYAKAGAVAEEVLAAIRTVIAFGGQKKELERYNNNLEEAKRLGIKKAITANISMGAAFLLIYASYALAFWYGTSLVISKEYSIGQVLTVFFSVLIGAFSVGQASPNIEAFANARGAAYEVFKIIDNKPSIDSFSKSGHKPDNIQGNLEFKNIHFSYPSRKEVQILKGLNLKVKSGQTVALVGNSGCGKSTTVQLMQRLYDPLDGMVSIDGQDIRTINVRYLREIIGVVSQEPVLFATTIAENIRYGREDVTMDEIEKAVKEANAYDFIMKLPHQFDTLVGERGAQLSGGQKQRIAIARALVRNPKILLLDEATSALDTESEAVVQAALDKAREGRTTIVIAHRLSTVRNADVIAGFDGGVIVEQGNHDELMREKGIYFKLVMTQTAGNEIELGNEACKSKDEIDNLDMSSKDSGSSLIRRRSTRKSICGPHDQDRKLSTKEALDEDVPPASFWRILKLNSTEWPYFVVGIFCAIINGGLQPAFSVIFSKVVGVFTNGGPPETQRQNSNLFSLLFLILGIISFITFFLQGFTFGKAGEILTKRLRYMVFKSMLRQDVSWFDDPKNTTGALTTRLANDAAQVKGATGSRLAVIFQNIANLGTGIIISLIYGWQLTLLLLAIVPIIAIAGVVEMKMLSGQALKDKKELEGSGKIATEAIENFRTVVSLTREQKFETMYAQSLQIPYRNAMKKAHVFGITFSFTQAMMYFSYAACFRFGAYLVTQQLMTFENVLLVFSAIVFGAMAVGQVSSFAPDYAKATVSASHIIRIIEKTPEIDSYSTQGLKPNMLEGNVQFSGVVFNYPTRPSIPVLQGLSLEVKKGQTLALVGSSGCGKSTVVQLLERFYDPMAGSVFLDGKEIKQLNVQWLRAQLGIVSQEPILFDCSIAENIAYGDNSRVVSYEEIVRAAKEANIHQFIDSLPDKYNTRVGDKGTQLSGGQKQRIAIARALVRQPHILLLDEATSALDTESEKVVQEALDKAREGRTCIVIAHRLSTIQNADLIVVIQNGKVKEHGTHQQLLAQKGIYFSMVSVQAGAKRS
T3 sequence (P06795 whole entry): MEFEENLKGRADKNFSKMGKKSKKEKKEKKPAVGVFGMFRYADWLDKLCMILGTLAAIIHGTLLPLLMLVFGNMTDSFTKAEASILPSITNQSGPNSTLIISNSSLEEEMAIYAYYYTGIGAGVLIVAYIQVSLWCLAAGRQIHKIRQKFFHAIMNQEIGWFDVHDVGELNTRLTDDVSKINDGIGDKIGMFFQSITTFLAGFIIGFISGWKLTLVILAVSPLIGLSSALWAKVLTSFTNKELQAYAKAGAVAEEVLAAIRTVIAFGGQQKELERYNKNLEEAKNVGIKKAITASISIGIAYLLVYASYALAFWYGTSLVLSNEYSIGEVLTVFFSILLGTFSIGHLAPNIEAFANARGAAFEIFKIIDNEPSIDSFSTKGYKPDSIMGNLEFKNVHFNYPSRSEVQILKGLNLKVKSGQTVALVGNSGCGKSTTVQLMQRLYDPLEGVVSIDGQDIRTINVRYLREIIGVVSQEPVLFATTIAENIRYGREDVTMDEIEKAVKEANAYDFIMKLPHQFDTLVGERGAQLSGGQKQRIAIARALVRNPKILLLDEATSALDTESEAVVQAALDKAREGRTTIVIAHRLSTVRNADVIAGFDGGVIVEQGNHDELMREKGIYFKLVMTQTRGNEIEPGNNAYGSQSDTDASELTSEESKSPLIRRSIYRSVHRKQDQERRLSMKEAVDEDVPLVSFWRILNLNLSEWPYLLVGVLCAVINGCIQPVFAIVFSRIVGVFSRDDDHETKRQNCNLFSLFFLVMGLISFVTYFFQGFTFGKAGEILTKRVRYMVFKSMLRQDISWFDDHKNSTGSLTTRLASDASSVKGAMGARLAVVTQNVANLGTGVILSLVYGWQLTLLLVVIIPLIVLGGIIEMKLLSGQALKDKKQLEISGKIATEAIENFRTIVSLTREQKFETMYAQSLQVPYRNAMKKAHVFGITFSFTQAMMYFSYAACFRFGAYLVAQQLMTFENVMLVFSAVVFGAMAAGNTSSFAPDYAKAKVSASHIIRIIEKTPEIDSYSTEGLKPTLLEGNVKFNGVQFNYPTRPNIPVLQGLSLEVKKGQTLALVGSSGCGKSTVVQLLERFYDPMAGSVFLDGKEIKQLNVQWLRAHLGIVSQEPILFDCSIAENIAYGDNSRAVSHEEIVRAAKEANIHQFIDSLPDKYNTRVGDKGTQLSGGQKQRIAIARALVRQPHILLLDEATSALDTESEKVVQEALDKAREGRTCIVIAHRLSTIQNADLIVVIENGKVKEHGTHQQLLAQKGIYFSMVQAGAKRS
Description for Cytochrome P450 3A4: Inhibition of human cytochrome P450 3A4

As a reminder, the IC50 is the concentration at which inhibition is half-maximal. In general, Inhibition refers to the change of the read-out against control, counted positive when it falls. What is called logP is the decadic logarithm of the partition coefficient of the neutral form, usually between octanol and water. With IVERMECTIN, the half-maximal inhibitory concentration (IC50) was 500 nM in data set [1]; 500 nM in [4]; 100 nM in [5]; 500 nM in [7]; 100 nM in [8]; 500 nM in [10]. At Cytochrome P450 3A4, this sequence yielded an IC50 greater than 50000 nM. In addition, the Activity was 34% in [2] and -3.4 nmol/min/mg in data set [3]. Moreover, the Inhibition in data set [6] came to 34%. This sequence had a logP in data set [9] of 4.
